Among the data in PubChem BioAssay AID651890 (Broad Institute, 2012) are IC50 values, retold here.

This assay has as its system T. cruzi Tulahuen amastigotes in L-6 cells, CPRG absorbance. As to the kind of experiment: intracellular Chagas parasite inhibition in myoblasts – Tulahuen strain, L-6 host cells, dry powder, dose response (AID 651890).

Regarding `C[C@@H]1CN([C@@H](C)CO)C(=O)c2cccc(NC(=O)c3ccncc3)c2O[C@H]1CN(C)Cc1ccc(Oc2ccccc2)cc1`, the IC50 is 39 nM.
